From patent US20230391776A1, “AMIDE OXAZOLE COMPOUND” (MEDSHINE DISCOVERY INC., priority 2020, published 2023) come the findings set out here.

Structures are written as SMILES.

The target of assay [1] is T1, human IRAK4 (Homo sapiens, UniProt Q9NWZ3).
T1 construct: purchased Reaction Biology Corp
T1 sequence (Q9NWZ3 1-460): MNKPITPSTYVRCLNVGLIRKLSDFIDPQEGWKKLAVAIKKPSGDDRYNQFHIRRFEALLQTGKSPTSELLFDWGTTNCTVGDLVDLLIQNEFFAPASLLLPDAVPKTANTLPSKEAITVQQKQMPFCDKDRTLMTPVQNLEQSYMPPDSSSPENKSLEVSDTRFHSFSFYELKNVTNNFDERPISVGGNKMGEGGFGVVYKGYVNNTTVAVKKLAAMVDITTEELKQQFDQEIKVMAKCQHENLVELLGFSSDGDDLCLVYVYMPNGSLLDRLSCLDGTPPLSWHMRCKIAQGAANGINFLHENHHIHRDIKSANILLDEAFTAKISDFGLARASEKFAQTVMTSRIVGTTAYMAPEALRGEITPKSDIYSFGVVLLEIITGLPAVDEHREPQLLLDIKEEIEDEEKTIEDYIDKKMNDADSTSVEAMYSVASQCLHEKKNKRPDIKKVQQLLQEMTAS
The assay can be described thus: In vitro IRAK4 kinase activity, 33P isotope-labeled kinase assay. In kind it is biochemical. The procedure:
The IC50 values were determined using ^33P isotope-labeled kinase activity assay (Reaction Biology Corp) to evaluate the inhibitory ability of the tested compounds on human IRAK4.
(§1) Buffer conditions: 20 mM Hepes (pH 7.5), 10 mM MgCl2, 1 mM EGTA, 0.02% Brij35, 0.02 mg/mL BSA, 0.1 mM Na3VO4, 2 mM DTT, 1% DMSO.
Test procedure: At room temperature, the tested compound was dissolved in DMSO and a 10 mM solution was prepared for use. The substrate was dissolved in a newly prepared buffer solution, and the tested IRAK4 kinase was added thereto and mixed evenly. The DMSO solution dissolved with the tested compound was added to the above mixed evenly reaction solution using acoustic technique (Echo 550). After incubation for 15 minutes, ^33P-ATP was added to initiate the reaction. The reaction was carried out at room temperature for 120 minutes, and the reaction mixture was dropped on P81 ion exchange filter paper (Whatman #3698-915). The filter paper was washed repeatedly with 0.75% phosphoric acid solution, and the radioactivity of phosphorylated substrate residues on the filter paper was determined. The kinase activity data were expressed by comparing the kinase activity of the group containing the tested compound with the kinase activity of the blank group (only containing DMSO), and the IC50 value was obtained by curve fitting by Prism4 software (GraphPad), the experimental results were shown in Table 2.

Assay [2] concerns the target T2, human BTK (Homo sapiens, UniProt Q06187).
T2 construct: purchased Reaction Biology Corp
The assay can be described thus: In vitro BTK kinase activity, 33P isotope-labeled kinase assay. It counts as biochemical. The protocol:
The IC50 values were determined using ^33P isotope-labeled kinase activity assay (Reaction Biology Corp) to evaluate the inhibitory ability of the tested compounds on human BTK.
as §1
Test procedure: At room temperature, the tested compound was dissolved in DMSO and a 10 mM solution was prepared for use. The substrate was dissolved in a newly prepared buffer solution, and the BTK kinase was added thereto and mixed evenly. The compound dissolved in DMSO was added to the kinase reaction mixture through Echo 550 (Acoustic technology; Nanoliter range). After incubation for 20 minutes at room temperature, ^33P-ATP was added to initiate the reaction. The reaction was carried out at room temperature for 2 hours, and the radioactivity of the reaction solution drop was detected by filtration-binding method with P81 ion exchange filter paper. The kinase activity data were expressed by comparing the kinase activity of the group containing the tested compound with the kinase activity of the blank group (only containing DMSO), and the IC50 value was obtained by curve fitting by Prism4 software (GraphPad), the experimental results were shown in Table 3.

Assay [3] concerns TNF-α production in THP-1 cells. The assay can be described thus: TNF-α ELISA in LPS-stimulated THP-1 cells. In kind it is cell-based. The settings on record: Homo sapiens, TNF-α in supernatant, 150 ng/mL LPS, 18 hours. The procedure:
THP-1 human acute single cell leukemia cells were purchased from ATCC (Cat #TIB-202) and cultured at 37° C. in 5% CO2 incubator. The composition of medium was RPMI1640 (Gibco, Cat #22400-105), and the supplementary compositions were 10% FBS (Gibco, Cat #10091148); 1% PenStrep (Gibco, Cat #15140); 0.05 mM β-mercaptoethanol (Sigma, Cat #M6250).
TNF-α Elisa kit was used to detect the content of TNF-α in cell culture supernatant samples. TNF-α was produced by stimulating THP-1 cells with 150 ng/mL LPS (Sigma, Cat #L6529).
THP-1 cells cultured normally at logarithmic growth period were seeded in a 96-well plate (Corning #3599) at a certain concentration (1*10^5/100 μL) and then put into a cell incubator for incubation. After two hours, 16.7 μL of different concentrations of the compound to be tested (8*final concentration) were added and incubated in an incubator. After one hour, 16.7 μL of 1200 ng/mL LPS was added and incubated in an incubator. After 18 hours, the culture supernatant samples were collected by centrifugation, and the content of TNF-α could be detected by TNF-α Elisa kit. Finally, OD signals (OD450-OD570) were read on envision board reader.
The OD450-OD570 signal value was converted into a percentage inhibition rate.
Inhibition rate %=(ZPE−sample)/(ZPE−HPE)*100.
“HPE” referred to the OD450-OD570 signal value of the control well without LPS stimulated cells, and “ZPE” referred to the OD450-OD570 signal value of the control well with LPS stimulated cells. The IC50 value of the compound was calculated by XLFit in the excel add-in.
Y=Bottom+(Top−Bottom)/(1+(IC50/X)^HillSlope). Equation: […]
On the technique in general: In an ELISA, binding on a coated surface is turned into a signal by an enzyme label.

For assay [4], the system named is OCI-LY10 human diffuse large B lymphoma cells. The assay can be described thus: OCI-LY10 cell proliferation (Cell Titer Glo). In kind it is cell-based. Conditions: 72 hours. The protocol:
(§2) The tumor cell lines OCI-LY10 and TMD-8 were used to detect the effect of the compound of the disclosure on inhibiting tumor cell proliferation in vitro.
OCI-LY10 human diffuse large B lymphoma cells, from Nanjing Cobioer Biotechnology Co., Ltd
(§3) The compound was diluted with DMSO to a final concentration of 10 mM. The compound was freshly prepared and ready for use.
(§4) a) Logarithmic growth period cells were collected, counted, resuspended with complete culture medium, the cell concentration was adjusted to an appropriate concentration (determined according to the results of cell density optimization test), inoculated on 96-well plates, and 100 μL of cell suspension was added to each well. Cells were incubated in an incubator with 37° C., 100% relative humidity and 5% CO2 for 24 hours.
(§5) b) The compound to be tested was diluted to 50 μM with culture medium and then gradient diluted for 8 times. Cells were added with 25 μL/well. The final concentrations of the compound were from […], 3-fold gradient dilution, with a total of 9 concentration points.
(§6) c) Cells were incubated in an incubator with 37° C., 100% relative humidity and 5% CO2 for 72 hours;
(§7) d) 60 μL of CTG test reagent was added to the culture medium.
(§8) e) Shaked fully and reacted in the dark for 10 min. Luminescence was measured on ENVISION and the inhibition rate was calculated.
(§9) Cell growth inhibition rate %=[(RLUv−RLUs)/(RLUv−RLUb)]×100%
Background: ATP-based viability assays read luminescence as a measure of living cells.

Assay [5] has as its system TMD-8 human diffuse large B lymphoma cells. The assay can be described thus: TMD-8 cell proliferation (Cell Titer Glo). It counts as cell-based. The settings on record: TMD8, 72 hours. The procedure:
as §2
TMD-8 human diffuse large B lymphoma cells, from Nanjing Cobioer Biotechnology Co., Ltd
as §3, §4, §5, §6, §7, §8, §9

Assay [6] deals with OCI-LY3 cell line. The assay can be described thus: OCI-LY3 cell proliferation (CTG). The settings on record: Homo sapiens, 72 hours. In kind it is cell-based. The procedure: The tumor cell line OCI-LY3 was used to detect the effect of the compound of the disclosure on inhibiting tumor cell proliferation in vitro.
The tumor cell line used in this experiment was provided by Nanjing Cobioer Biotechnology Co., Ltd. See Table 6 below for specific information.
The OCI-LY3 cell line was cultured in the corresponding medium at 37° C. and 5% CO2, and the logarithmic growth period cells were used for experimental planking. The cells were collected and centrifuged at 800 rpm for 5 minutes, and the culture medium was re-suspended and spread in a 96-well plate. After being cultured overnight in 37° C., 5% CO2 incubator, drugs with different concentration gradients (10 μL of prepared diluent of test compound was added) were added, and incubated in 37° C., 5% CO2 incubator for 72 hours. The cell culture plate was incubated with CTG reagent at room temperature in the dark for 30 minutes and return to room temperature. CTG solution was added into the biosafety cabinet in the dark 100 μL/well, and was shaken and mixed evenly on plate shaker in the dark for 2 minutes, and incubated at room temperature in the dark for 10 minutes. The luminous value was read and recorded with Perkin Elmer Envision instrument.
The luminous value of the blank control group was subtracted from the luminous value measured at each drug concentration, the ratio of this value to DMSO group was taken as the cell inhibition rate (%). GraphPad software was used, the logarithm of drug concentration (log drug concentration) versus inhibition rate was plotted, and the IC50 value and 95% confidence value were automatically fitted and calculated by log (inhibitor) vs. response-variable slop (four parameters) algorithm of nonlinear regression by software.

The subject of assay [7] is human diffuse large B lymphoma TMD8 cell subcutaneous xenograft. The assay can be described thus: TMD8 subcutaneous xenograft tumor model (WX009 study). It counts as in vivo, SCID mouse. The settings on record: 20 mg/kg QD PO, 18th day after administration. From the text: The formula for calculating the tumor inhibition rate TGI (%)=[1−(average tumor volume at the end of administration in a treatment group-average tumor volume at the beginning of administration in the treatment group))/(average tumor volume at the end of treatment in solvent control group-average tumor volume at the beginning of treatment in solvent control group)]×100%.

Assay [8] has the same test system. The assay can be described thus: TMD8 subcutaneous xenograft tumor model (WX017 and WX027 study). Conditions: 20 mg/kg QD PO, 11th day after administration.
Method: a) TMD8 cells were cultured in RPMI-1640 medium containing 10% FBS and maintained in a 37° C. saturated humidity incubator with 5% CO2. TMD8 cells in logarithmic period were collected, resuspended in RPMI-1640 basal medium, and Matrigel was added at 1:1, and the cell concentration was adjusted to 4×10^7/mL. Under aseptic conditions, 0.1 mL of cell suspension was inoculated under the skin of the right back of SCID mice, and the inoculation concentration was 4×10^6/0.1 mL/mouse.
When the tumor grew to a certain size, the animals with too large, too small or irregular tumor shape were excluded, and the animals with tumor volume of 108.76-188.11 mm^3 were selected. According to the tumor volume, the animals were divided into 10 groups by random block method, with 6 mice in each group, and the average tumor volume was about 152.11 mm^3. The health status and death of animals were monitored every day, and routine examinations included observing the effects of tumor growth and drug treatment on daily behaviors of animals, such as behavioral activities, food intake and water intake, weight change (weight was measured twice a week), tumor size (tumor volume was measured twice a week), appearance signs or other abnormal conditions.
The formula for calculating tumor volume (TV) was: 1/2×a×b^2, where a and b were the measured length and width of the tumor respectively. The formula for calculating the tumor inhibition rate TGI (%)=[1−(average tumor volume at the end of administration in a treatment group-average tumor volume at the beginning of administration in the treatment group))/(average tumor volume at the end of treatment in solvent control group-average tumor volume at the beginning of treatment in solvent control group)]×100%.
In this study, the experimental data were all expressed by Mean±SEM. Statistical analysis was based on the data of RTV at the end of the experiment and analyzed by IBM SPSS Statistics software. T test was used to analyze the comparison between two groups, and one-way ANOVA was used to analyze the comparison between three or more groups. If the variance was even (there was no significant difference in F value), Tukey's method was used to analyze it, and if the variance was uneven (there was significant difference in F value), Games-Howell method was used to test it. p<0.05 was deemed to a significant difference.

T2 sequence (Q06187 whole entry): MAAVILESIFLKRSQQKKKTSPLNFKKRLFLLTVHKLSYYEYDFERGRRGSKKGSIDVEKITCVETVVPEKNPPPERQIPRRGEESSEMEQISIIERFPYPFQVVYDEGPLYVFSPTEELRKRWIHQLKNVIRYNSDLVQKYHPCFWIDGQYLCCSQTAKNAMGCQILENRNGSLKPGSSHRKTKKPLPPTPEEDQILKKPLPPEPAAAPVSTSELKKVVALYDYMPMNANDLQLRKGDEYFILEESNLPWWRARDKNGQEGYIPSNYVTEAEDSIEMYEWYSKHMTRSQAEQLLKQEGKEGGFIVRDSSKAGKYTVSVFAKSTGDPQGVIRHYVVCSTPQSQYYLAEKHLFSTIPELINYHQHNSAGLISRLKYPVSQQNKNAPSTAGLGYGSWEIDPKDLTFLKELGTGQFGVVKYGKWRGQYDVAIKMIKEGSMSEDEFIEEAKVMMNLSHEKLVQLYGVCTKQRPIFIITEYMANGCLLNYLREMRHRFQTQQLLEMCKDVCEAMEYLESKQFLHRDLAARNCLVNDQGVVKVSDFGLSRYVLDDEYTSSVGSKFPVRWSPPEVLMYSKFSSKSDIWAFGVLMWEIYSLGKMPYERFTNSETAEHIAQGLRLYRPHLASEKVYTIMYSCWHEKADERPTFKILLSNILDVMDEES

On to `CC(C)(O)CCc1cn2cc(NC(=O)c3coc(-c4ccnc(N)c4)n3)c(N3CCCCC3)cc2n1` [WX001], for which the IC50 came to 1.8 nM in assay [1]; 7.9 nM in assay [2]; 20 nM in assay [3]; 29 nM in assay [4]; 10 nM in assay [5]; 57 nM in assay [6].
In the case of `CS(=O)(=O)CCc1cn2cc(NC(=O)c3coc(-c4ccnc(N)c4)n3)c(-c3ccccc3)cc2n1` [WX013], the IC50 was 1.8 nM in assay [1]; 2.9 nM in assay [2]; 6 nM in assay [3]; 8 nM in assay [4]; 20 nM in assay [5]; 34 nM in assay [6].
As for `CN(C)CCc1cn2cc(NC(=O)c3coc(-c4ccnc(N)c4)n3)c(-c3ccccc3)cc2n1` [WX016], the IC50 was determined as 2 nM in assay [1]; 1.6 nM in assay [2]; 3 nM in assay [4]; 6 nM in assay [5]; 37 nM in assay [6].
Turning to `Cc1nccc(-c2nc(C(=O)Nc3cn4cc(C(C)(C)O)nc4cc3-c3ccccc3)co2)c1Cl` [WX036], the IC50 in assay [1] was 0.4 nM; in assay [3], 57.1 nM; in assay [4], 15.2 nM; in assay [5] it was 16.7 nM; in assay [6], 42 nM.
With `C=CC(=O)N1CCC[C@@H](n2nc(-c3ccc(Oc4ccccc4)cc3)c3c(N)ncnc32)C1` [ibrutinib, reference compound], the TGI amounted to 12.95% in assay [7], 13% in assay [7] (listed as Ibrahim) and 39% in assay [8].

Broadly, the IC50 is the concentration at which inhibition is half-maximal. Usually TGI stands for the reduction of tumour growth relative to the control group. The low end stands for a weaker effect on the tumour, the high end for a stronger effect on the tumour.
